# Assay results taken from patent US6890886B2, “Agricultural compositions employing organosiloxanes containing polyhydric groups” (General Electric Company, priority 2000, dated 2005).
# Legend:
# [1] = Aqueous surface tension (Cahn microbalance, sand blasted platinum blade); assay type: physicochemical; settings: 0.1 wt % in 0.005M NaCl water (deionized), 25° C.
# Experimental: Surface tension was measured using a Cahn microbalance, with a sand blasted platinum blade as the sensor. Solutions of the various components were prepared at 0.1 wt % in 0.005M NaCl water (Deionized), as an equilibrium aid. Aqueous solutions of these unique compositions provide a significant reduction in surface tension relative to conventional surfactants.
# [2] = Spreading of a 10 μL droplet of surfactant solution on polyester film; assay type: physicochemical; settings: 10 μL droplet on polyester film (3M, IR 1140), after 30 seconds
# Experimental: Spreading was determined by applying a 10 μL droplet of surfactant solution to a polyester film (3M, IR 1140 transparency film) and measuring the spread diameter after 30 seconds. The solution was applied with an automatic pipette to provide droplets of reproducible volume. Deionized water that was further purified with a Millipore filtration system was used to prepare the surfactant solutions.
substance,measurement,setting,value
Me3SiO[MeSi(C3H6O(C2H4O)8H)O]1SiMe3 [SIL-A],Surface Tension (mN/m),[1],21 mN/m
same,Spread Diameter (mm) 0.1 wt%,[2]; 0.1 wt% solution,44 mm
same,Spread Diameter (mm) 0.2 wt%,[2]; 0.2 wt% solution,42 mm
